From US12391737B2, “Soluble NPY2 receptor agonists” (Boehringer Ingelheim International GmbH, priority 2020, dated 2025)
*1 amine or outer side, *2 acyl side, *3 side chain or, on linkers, in order; H or OH if unused. Where a SMILES comes first, the peptide text is derived from it. Side-chain parts run from the residue outwards. The star is where a group is joined. C18 diacid = O=C(O)CCCCCCCCCCCCCCCCC(=O)*; γGlu = O=C(O)[C@H](CCC(=O)[*:2])N[*:1]; Isovaleryl = CC(C)CC(=O)*; Ahx = NCCCCCC(=O)O

What was measured:
[1] = target: T1, Human Neuropeptide Y2 Receptor (Homo sapiens, UniProt P49146); assay: Radioligand binding competition assay (RLB); settings: Table 3, 125I-PYY(1-36) competition; read-out: Ki
T1 construct: purchased CHEMICON HTS066M
T1 sequence (P49146 1-381): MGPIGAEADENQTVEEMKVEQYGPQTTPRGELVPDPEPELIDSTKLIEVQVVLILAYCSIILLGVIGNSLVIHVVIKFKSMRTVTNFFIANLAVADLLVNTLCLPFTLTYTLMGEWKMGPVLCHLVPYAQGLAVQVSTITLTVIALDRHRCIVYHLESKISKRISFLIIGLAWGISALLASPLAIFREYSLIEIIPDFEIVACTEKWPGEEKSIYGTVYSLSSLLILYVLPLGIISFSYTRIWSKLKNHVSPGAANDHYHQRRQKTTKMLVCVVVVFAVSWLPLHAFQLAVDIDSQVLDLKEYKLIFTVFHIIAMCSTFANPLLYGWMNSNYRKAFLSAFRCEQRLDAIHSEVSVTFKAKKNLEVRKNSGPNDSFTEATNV
Method in brief: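 Peptides were serially diluted from 1 mM DMSO stocks and competed for radioligand binding to receptor membranes (0.5 μg/well) over 2 h at room temperature, pH 7.4 HEPES buffer. Bound radioactivity on filters was counted by scintillation, and IC50 was derived by nonlinear regression.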

Solubility determination = settings: for Sol6: pH 6; for Sol7: pH 7
Method in brief: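 First, TFA-salt peptide was added to 0.1 M sodium diphosphate (pH 6.4 or 7.0) to 10 mg/ml and shaken 2 h at room temperature. Next, insoluble material was filtered off. Finally, filtrate and control, each 1 mg/ml in 50% acetonitrile, were compared by reversed-phase chromatography.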

| SMILES | Ki [1] | Sol6 (Solubility determination) | Sol7 (Solubility determination) |
| --- | --- | --- | --- |
| CC(C)CC(=O)N[C@@H](C)C(=O)N1CCC[C@H]1C(=O)N[C@@H](CCC(=O)O)C(=O)N[C@@H](CCCCNC(=O)CCCCCNC(=O)CC[C@H](NC(=O)CCCCCCCCCCCCCCCCC(=O)O)C(=O)O)C(=O)N1CCC[C@H]1C(=O)N[C@@H](CCC(=O)O)C(=O)N[C@@H](CCC(=O)O)C(=O)N[C@@H](CC(=O)O)C(=O)N[C@@H](C)C(=O)N[C@H](C(=O)N1CCC[C@H]1C(=O)N[C@@H](CCC(=O)O)C(=O)N[C@@H](CCC(=O)O)C(=O)N[C@@H](CC(C)C)C(=O)N[C@@H](CCC(N)=O)C(=O)N[C@@H](CCCNC(=N)N)C(=O)N[C@@H](Cc1ccc(O)cc1)C(=O)N[C@@H](Cc1ccc(O)cc1)C(=O)N[C@H](C(=O)N[C@@H](CC(C)C)C(=O)N[C@@H](CC(C)C)C(=O)N[C@@H](CCCNC(=N)N)C(=O)N[C@@H](Cc1c[nH]cn1)C(=O)N[C@@H](Cc1ccc(O)cc1)C(=O)N[C@@H](Cc1ccc(O)cc1)C(=O)N[C@@H](CC(N)=O)C(=O)N[C@@H](Cc1c[nH]c2ccccc12)C(=O)N[C@@H](CC(C)C)C(=O)N[C@H](C(=O)N[C@@H](CCCNC(=N)N)C(=O)N[C@@H](CCC(N)=O)C(=O)N[C@@H](CCCNC(=N)N)C(=O)N[C@@H](Cc1ccc(O)cc1)C(N)=O)[C@@H](C)O)C(C)C)[C@@H](C)O [Compound 49, N{alpha-4}-(3-methylbutanoyl)-N{epsilon-7}-(6-[(4S)-4-carboxy-4-(17-carboxyheptadecanamido)butanamido]hexanoyl)-[4A,7K,9E,13T,18Q,22V,23L,28Y,30W,31L]-hPYY(4-36)] | 11.6 nM | >10.0 mg/mL | >10.0 mg/mL |
| CC(C)CC(=O)N[C@@H](C)C(=O)N1CCC[C@H]1C(=O)N[C@@H](C)C(=O)N[C@@H](CCCCNC(=O)CCCCCNC(=O)CC[C@H](NC(=O)CCCCCCCCCCCCCCCCC(=O)O)C(=O)O)C(=O)N1CCC[C@H]1C(=O)N[C@@H](CCC(=O)O)C(=O)N[C@@H](C)C(=O)N[C@@H](C)C(=O)N[C@@H](C)C(=O)N[C@@H](CCC(=O)O)C(=O)N1CCC[C@H]1C(=O)N[C@@H](CCC(=O)O)C(=O)N[C@@H](CCC(=O)O)C(=O)N[C@@H](CC(C)C)C(=O)N[C@@H](CCC(N)=O)C(=O)N[C@@H](CCCNC(=N)N)C(=O)N[C@@H](Cc1ccc(O)cc1)C(=O)N[C@@H](Cc1ccc(O)cc1)C(=O)N[C@H](C(=O)N[C@@H](CO)C(=O)N[C@@H](CC(C)C)C(=O)N[C@@H](CCCNC(=N)N)C(=O)N[C@@H](Cc1c[nH]cn1)C(=O)N[C@@H](Cc1ccc(O)cc1)C(=O)N[C@@H](Cc1ccc(O)cc1)C(=O)N[C@@H](CC(N)=O)C(=O)N[C@@H](Cc1c[nH]c2ccccc12)C(=O)N[C@@H](CC(C)C)C(=O)N[C@H](C(=O)N[C@@H](CCCNC(=N)N)C(=O)N[C@@H](CCC(N)=O)C(=O)N[C@@H](CCCNC(=N)N)C(=O)N[C@@H](Cc1ccc(O)cc1)C(N)=O)[C@@H](C)O)C(C)C [Compound 43, N{alpha-4}-(3-methylbutanoyl)-N{epsilon-7}-(6-[(4S)-4-carboxy-4-(17-carboxyheptadecanamido)butanamido]hexanoyl)[4A,6A,7K,9E,10A,11A,13E,18Q,22V,28Y,30W,31L]-hPYY(4-36)] (Isovaleryl-APAK([Ahx-γGlu-C18 diacid])PEAAAEPEELQRYYVSLRHYYNWLTRQRY-NH2) | 2.49 nM | 0.0 mg/mL | 0.0 mg/mL |
| CC(C)CC(=O)N[C@@H](C)C(=O)N1CCC[C@H]1C(=O)N[C@@H](C)C(=O)N[C@@H](CCCCNC(=O)CCCCCNC(=O)CC[C@H](NC(=O)CCCCCCCCCCCCCCCCC(=O)O)C(=O)O)C(=O)N1CCC[C@H]1C(=O)N[C@@H](CCC(=O)O)C(=O)N[C@@H](CCC(=O)O)C(=O)N[C@@H](CC(=O)O)C(=O)N[C@@H](C)C(=O)N[C@@H](CO)C(=O)N1CCC[C@H]1C(=O)N[C@@H](CCC(=O)O)C(=O)N[C@@H](CCC(=O)O)C(=O)N[C@@H](CC(C)C)C(=O)N[C@@H](CCC(N)=O)C(=O)N[C@@H](CCCNC(=N)N)C(=O)N[C@@H](Cc1ccc(O)cc1)C(=O)N[C@@H](Cc1ccc(O)cc1)C(=O)N[C@H](C(=O)N[C@@H](CCC(N)=O)C(=O)N[C@@H](CC(C)C)C(=O)N[C@@H](CCCNC(=N)N)C(=O)N[C@@H](Cc1c[nH]cn1)C(=O)N[C@@H](Cc1ccc(O)cc1)C(=O)N[C@@H](Cc1ccc(O)cc1)C(=O)N[C@@H](CC(N)=O)C(=O)N[C@@H](Cc1c[nH]c2ccccc12)C(=O)N[C@@H](CC(C)C)C(=O)N[C@H](C(=O)N[C@@H](CCCNC(=N)N)C(=O)N[C@@H](CCC(N)=O)C(=O)N[C@@H](CCCNC(=N)N)C(=O)N[C@@H](Cc1ccc(O)cc1)C(N)=O)[C@@H](C)O)C(C)C [Compound 59, N{alpha-4}-(3-methylbutanoyl)-N{epsilon-7}-(6-[(4S)-4-carboxy-4-(17-carboxyheptadecanamido)butanamido]hexanoyl)-[4A,6A,7K,9E,18Q,22V,23Q,28Y,30W,31L]-hPYY(4-36)] | 1.93 nM | 9.7 mg/mL | 9.6 mg/mL |

Further lines, results first:

| Ki [1] | Sol6 (Solubility determination) | Sol7 (Solubility determination) | SMILES |
| --- | --- | --- | --- |
| 6.91 nM | 10.0 mg/mL | 10.0 mg/mL | CC(C)CC(=O)N[C@@H](C)C(=O)N1CCC[C@H]1C(=O)N[C@@H](CCC(=O)O)C(=O)N[C@@H](CCCCNC(=O)CCCCCNC(=O)CC[C@H](NC(=O)CCCCCCCCCCCCCCCCC(=O)O)C(=O)O)C(=O)N1CCC[C@H]1C(=O)N[C@@H](CCC(=O)O)C(=O)N[C@@H](CCC(=O)O)C(=O)N[C@@H](CC(=O)O)C(=O)N[C@@H](C)C(=O)N[C@H](C(=O)N[C@@H](CO)C(=O)N[C@@H](CCC(=O)O)C(=O)N[C@@H](CCC(=O)O)C(=O)N[C@@H](CC(C)C)C(=O)N[C@@H](CCC(N)=O)C(=O)N[C@@H](CCCNC(=N)N)C(=O)N[C@@H](Cc1ccc(O)cc1)C(=O)N[C@@H](Cc1ccc(O)cc1)C(=O)N[C@H](C(=O)N[C@@H](CO)C(=O)N[C@@H](CC(C)C)C(=O)N[C@@H](CCCNC(=N)N)C(=O)N[C@@H](Cc1c[nH]cn1)C(=O)N[C@@H](Cc1ccc(O)cc1)C(=O)N[C@@H](Cc1ccc(O)cc1)C(=O)N[C@@H](CC(N)=O)C(=O)N[C@@H](Cc1c[nH]c2ccccc12)C(=O)N[C@@H](CC(C)C)C(=O)N[C@H](C(=O)N[C@@H](CCCNC(=N)N)C(=O)N[C@@H](CCC(N)=O)C(=O)N[C@@H](CCCNC(=N)N)C(=O)N[C@@H](Cc1ccc(O)cc1)C(N)=O)[C@@H](C)O)C(C)C)[C@@H](C)O [Compound 83, N{alpha-4}-(3-methylbutanoyl)-N{epsilon-7}-(6-[(4S)-4-carboxy-4-(17-carboxyheptadecanamido)butanamido]hexanoyl)-[4A,7K,9E,13T,14S,18Q,22V,28Y,30W,31L]-hPYY(4-36)] |
| 1.33 nM | 9.5 mg/mL | 9.3 mg/mL | CC[C@H](C)[C@H](NC(=O)[C@H](CCC(=O)O)NC(=O)[C@H](CCC(=O)O)NC(=O)[C@@H]1CCCN1C(=O)[C@H](CCC(=O)O)NC(=O)[C@H](C)NC(=O)[C@H](CC(=O)O)NC(=O)[C@H](C)NC(=O)[C@H](CCC(=O)O)NC(=O)[C@@H]1CCCN1C(=O)[C@H](CCCCNC(=O)CCCCCNC(=O)CC[C@H](NC(=O)CCCCCCCCCCCCCCCCC(=O)O)C(=O)O)NC(=O)[C@H](C)NC(=O)[C@@H]1CCCN1C(=O)[C@H](C)NC(=O)CC(C)C)C(=O)N[C@@H](CCC(N)=O)C(=O)N[C@@H](CCCNC(=N)N)C(=O)N[C@@H](Cc1ccc(O)cc1)C(=O)N[C@@H](Cc1ccc(O)cc1)C(=O)N[C@H](C(=O)N[C@@H](C)C(=O)N[C@@H](CC(C)C)C(=O)N[C@@H](CCCNC(=N)N)C(=O)N[C@@H](Cc1c[nH]cn1)C(=O)N[C@@H](Cc1ccc(O)cc1)C(=O)N[C@@H](Cc1ccc(O)cc1)C(=O)N[C@@H](CC(N)=O)C(=O)N[C@@H](Cc1c[nH]c2ccccc12)C(=O)N[C@@H](CC(C)C)C(=O)N[C@H](C(=O)N[C@@H](CCCNC(=N)N)C(=O)N[C@@H](CCC(N)=O)C(=O)N[C@@H](CCCNC(=N)N)C(=O)N[C@@H](Cc1ccc(O)cc1)C(N)=O)[C@@H](C)O)C(C)C [Compound 181, N{alpha-4}-(3-methylbutanoyl)-N{epsilon-7}-(6-[(4S)-4-carboxy-4-(17-carboxyheptadecanamido)butanamido]hexanoyl)-[4A,6A,7K,9E,10A,13E,17I,18Q,22V,23A,28Y,30W,31L]-hPYY(4-36)] |
